# Patent US20200405697A1, “Antitumor Agent” (Taiho Pharmaceutical Co., Ltd, priority 2017, published 2020)
# Tested on: A549 (Human lung cancer cell line)
# Assay: Effect of combination of sulfonamide compound and other antitumor agent (CellTiter-Glo, combination index): A549
# [1] = Table 36: Example Compound 1 345 nM + Prexasertib 1.98 nM, molar ratio 1:0.005730
# [2] = Table 36: Example Compound 1 345 nM + SCH900776 910 nM, molar ratio 1:2.639
# [3] = Table 36: Example Compound 1 517 nM + AZD6738 1037 nM, molar ratio 1:2.005
# [4] = Table 36: Example Compound 1 517 nM + Fludarabine nucleoside 5910 nM, molar ratio 1:11.44
# [5] = Table 36: Example Compound 1 517 nM + Prexasertib 2.96 nM, molar ratio 1:0.005730
# [6] = Table 36: Example Compound 1 517 nM + SCH900776 1360 nM, molar ratio 1:2.639
# [7] = Table 36: Example Compound 1 775 nM + AZD6738 1554 nM, molar ratio 1:2.005
# [8] = Table 36: Example Compound 1 775 nM + Decitabine 1340 nM, molar ratio 1:1.733
# [9] = Table 36: Example Compound 1 775 nM + Fludarabine nucleoside 8870 nM, molar ratio 1:11.44
# [10] = Table 36: Example Compound 1 775 nM + Guadecitabine 469 nM, molar ratio 1:0.6048
# [11] = Table 36: Example Compound 1 775 nM + Prexasertib 4.44 nM, molar ratio 1:0.005730
# [12] = Table 36: Example Compound 1 775 nM + SCH900776 2050 nM, molar ratio 1:2.639
# [13] = Table 36: Example Compound 1 1160 nM + AZD6738 2326 nM, molar ratio 1:2.005
# [14] = Table 36: Example Compound 1 1160 nM + Cytarabine 110 nM, molar ratio 1:0.09524
# [15] = Table 36: Example Compound 1 1160 nM + Decitabine 2010 nM, molar ratio 1:1.733
# [16] = Table 36: Example Compound 1 1160 nM + Fludarabine nucleoside 13300 nM, molar ratio 1:11.44
# [17] = Table 36: Example Compound 1 1160 nM + Gemcitabine 5.58 nM, molar ratio 1:0.004813
# [18] = Table 36: Example Compound 1 1160 nM + Guadecitabine 702 nM, molar ratio 1:0.6048
# [19] = Table 36: Example Compound 1 1160 nM + SCH900776 3060 nM, molar ratio 1:2.639
# [20] = Table 36: Example Compound 1 1160 nM + Sunitinib 1870 nM, molar ratio 1:1.608
# [21] = Table 36: Example Compound 1 1160 nM + Trifluridine 430 nM, molar ratio 1:0.3703
# [22] = Table 36: Example Compound 1 1740 nM + 5-Fluorouracil 4300 nM, molar ratio 1:2.469
# [23] = Table 36: Example Compound 1 1740 nM + Azacytidine 4080 nM, molar ratio 1:2.344
# [24] = Table 36: Example Compound 1 1740 nM + Cabozantinib 5990 nM, molar ratio 1:3.443
# [25] = Table 36: Example Compound 1 1740 nM + Cytarabine 166 nM, molar ratio 1:0.09524
# [26] = Table 36: Example Compound 1 1740 nM + Decitabine 3020 nM, molar ratio 1:1.733
# [27] = Table 36: Example Compound 1 1740 nM + Etoposide 3780 nM, molar ratio 1:2.174
# [28] = Table 36: Example Compound 1 1740 nM + Fludarabine nucleoside 19900 nM, molar ratio 1:11.44
# [29] = Table 36: Example Compound 1 1740 nM + Gemcitabine 8.37 nM, molar ratio 1:0.004813
# [30] = Table 36: Example Compound 1 1740 nM + Guadecitabine 1050 nM, molar ratio 1:0.6048
# [31] = Table 36: Example Compound 1 1740 nM + Lapatinib 5990 nM, molar ratio 1:3.443
# [32] = Table 36: Example Compound 1 1740 nM + Luminespib 13.5 nM, molar ratio 1:0.007735
# [33] = Table 36: Example Compound 1 1740 nM + Midostaurin 250 nM, molar ratio 1:0.1438
# [34] = Table 36: Example Compound 1 1740 nM + Olaparib 14800 nM, molar ratio 1:8.494
# [35] = Table 36: Example Compound 1 1740 nM + Oxaliplatin 1060 nM, molar ratio 1:0.6082
# [36] = Table 36: Example Compound 1 1740 nM + SCH900776 4590 nM, molar ratio 1:2.639
# [37] = Table 36: Example Compound 1 1740 nM + Sunitinib 2800 nM, molar ratio 1:1.608
# [38] = Table 36: Example Compound 1 1740 nM + Talazoparib 7980 nM, molar ratio 1:4.587
# [39] = Table 36: Example Compound 1 1740 nM + Trifluridine 644 nM, molar ratio 1:0.3703
# [40] = Table 36: Example Compound 1 2620 nM + Carboplatin 79500 nM, molar ratio 1:30.35
# [41] = Table 36: Example Compound 1 2620 nM + Cisplatin 3610 nM, molar ratio 1:3.669
# [42] = Table 36: Example Compound 1 2620 nM + Trifluridine 970 nM, molar ratio 1:0.3703
# [43] = Table 36: Example Compound 1 3920 nM + Carboplatin 119000 nM, molar ratio 1:30.35
# [44] = Table 36: Example Compound 1 3920 nM + Cisplatin 14400 nM, molar ratio 1:3.669
# [45] = Table 36: Example Compound 1 5890 nM + Carboplatin 179000 nM, molar ratio 1:30.35
# [46] = Table 36: Example Compound 1 8830 nM + Carboplatin 268000 nM, molar ratio 1:30.35
# Experimental: Each cell line was seeded at 90 L/well to a 96-well culture plate (Thermo Fisher Scientific, Inc.) according to the above tables. The cell-seeded plate was cultured in an incubator set to 37° C. and 500 CO2. On the day following seeding, varying concentrations of the sulfonamide compound and the other antitumor agent were added in combination to the cells. […] The serial dilutions of each compound, or DW was added at 5μL/well to the plate such that each compound and DW, or the sulfonamide compound and the other antitumor agent were combined. […] The plate after the addition was cultured at 37° C. for 3 days under 5% CO2 conditions.
# Three days later, CellTiter-Glo(R) 2.0 Reagent (Promega Corporation) was added at 100 μL/well, and the amount of luminescence was measured using a plate reader EnSpire(R) Multimode Plate Reader (PerkinElmer Co., Ltd.).
# An average value from 3 wells was calculated as to each drug condition from the obtained data, and cell survival rate normalized against control wells supplemented with the vehicle (DW) was calculated. A Fa (fractional inhibition) value was calculated by subtracting the cell survival rate from 1.
structure (smiles),measurement,setting,value
"Cc1ccc(F)c([C@@H](C)[C@H](NS(=O)(=O)c2ccc(Br)cc2C(N)=O)c2n[nH]c(=O)o2)c1C [Example 1, 5-bromo-2-(N-((1 S,2R)-2-(6-fluoro-2,3-dimethylphenyl)-1-(5-oxo-4,5-dihydro-1,3,4-oxadiazol-2-yl)propyl)sulfamoyl)benzamide]",CI value,[1],0.363
same,Fa value,[1],0.4283
same,CI value,[2],0.287
same,Fa value,[2],0.5875
same,CI value,[3],0.486
same,Fa value,[3],0.5213
same,CI value,[4],0.818
same,Fa value,[4],0.1823
same,CI value,[5],0.207
same,Fa value,[5],0.7673
same,CI value,[6],0.250
same,Fa value,[6],0.7191
same,CI value,[7],0.318
same,Fa value,[7],0.7989
same,CI value,[8],0.528
same,Fa value,[8],0.3618
same,CI value,[9],0.559
same,Fa value,[9],0.5070
same,CI value,[10],0.558
same,Fa value,[10],0.3478
same,CI value,[11],0.174
same,Fa value,[11],0.8934
same,CI value,[12],0.210
same,Fa value,[12],0.8457
same,CI value,[13],0.309
same,Fa value,[13],0.8880
same,CI value,[14],0.842
same,Fa value,[14],0.4712
same,CI value,[15],0.573
same,Fa value,[15],0.4748
same,CI value,[16],0.405
same,Fa value,[16],0.8089
same,CI value,[17],0.865
same,Fa value,[17],0.6357
same,CI value,[18],0.627
same,Fa value,[18],0.4476
same,CI value,[19],0.255
same,Fa value,[19],0.8825
same,CI value,[20],0.740
same,Fa value,[20],0.7514
same,CI value,[21],0.842
same,Fa value,[21],0.6401
same,CI value,[22],0.835
same,Fa value,[22],0.7276
same,CI value,[23],0.820
same,Fa value,[23],0.6539
same,CI value,[24],0.688
same,Fa value,[24],0.8307
same,CI value,[25],0.619
same,Fa value,[25],0.7121
same,CI value,[26],0.627
same,Fa value,[26],0.5994
same,CI value,[27],0.631
same,Fa value,[27],0.7574
same,CI value,[28],0.537
same,Fa value,[28],0.8431
same,CI value,[29],0.757
same,Fa value,[29],0.8623
same,CI value,[30],0.640
same,Fa value,[30],0.5997
same,CI value,[31],0.400
same,Fa value,[31],0.8672
same,CI value,[32],0.828
same,Fa value,[32],0.8341
same,CI value,[33],0.624
same,Fa value,[33],0.8366
same,CI value,[34],0.575
same,Fa value,[34],0.7460
same,CI value,[35],0.787
same,Fa value,[35],0.7638
same,CI value,[36],0.411
same,Fa value,[36],0.8708
same,CI value,[37],0.811
same,Fa value,[37],0.8380
same,CI value,[38],0.508
same,Fa value,[38],0.7568
same,CI value,[39],0.696
same,Fa value,[39],0.8343
same,CI value,[40],0.519
same,Fa value,[40],0.8844
same,CI value,[41],0.701
same,Fa value,[41],0.9341
same,CI value,[42],0.744
same,Fa value,[42],0.9017
same,CI value,[43],0.474
same,Fa value,[43],0.9458
same,CI value,[44],0.608
same,Fa value,[44],0.9720
same,CI value,[45],0.627
same,Fa value,[45],0.9560
same,CI value,[46],0.635
same,Fa value,[46],0.9773
